Assays:
[1] = system: U937 human histiocytic leukemia cell line; test: Assay 1: inhibition of TSQ induced necroptosis, 96 well plate format; format: cell-based
Experimental: For in vitro analysis, the necroptosis inhibition may be determined by assays used to measure TSQ-induced necroptosis, as described in the biological tests defined herein.
(§1) Assay 1: Screening Compounds for Inhibition of TSQ Induced Necroptosis, 96 Well Plate Format.
(§2) Cell Line ID: […] human histiocytic leukemia cell line.
(§3) Cell Concentration (cells/well): 35,000 per well in 120 μL of media, counted and plated immediately prior to addition of inhibitor and death stimuli. Final well volume of 150 μL after addition of compounds and death stimuli
(§4) Cell growth medium: HTRPMI (WEHI Media kitchen, contains L-Glutamine and penicillin, streptomycin)—supplemented with 7.4% v/v FCS (Gibco, Precision Plus. Lot #1221437)
(§5) Incubation time (hours): 48 hours following addition of compounds and death stimuli
(§6) Compound Concentrations—Log Titrations:
(§7) DMSO final concentration (% v/v): 1.2% in 10 μM well to 0.2% in the control well.
Compounds that are in the Death Stimulation Cocktail and Their Final Concentrations:
hTNF-Fc (100 ng/ml)—produced by standard procedures as shown in Bossen et al., J Biol Chem, 2006, 281(20), 13964-13971.
Compound A (500 nM)—Smac mimetic, Tetralogic
Q-VD-OPh (10 μM)—MP Biomedicals
(§8) Cells treated with PI staining (1 μg/ml) and analysed by flow cytometry

[2] = system: U937 human histiocytic leukemia cell line; test: Off-target effect (cell based assay), reported with assay 1
Experimental: as §1, §2, §3, §4, §5, §6, §7, §8

[3] = U-937, Table 1, assay 1, hTNF-Fc 100 ng/ml, Compound A 500 nM, Q-VD-OPh 10 μM, 48 hours, PI staining, flow cytometry, read-out: Inhibition of TSQ-induced necroptosis (cell based assay) IC50
[4] = U-937, Table 1, assay 1, read-out: Off-target effect (cell based assay) IC50
[5] = U-937, comparison tables of the description, values as in Table 1 (assay 1), read-out: IC50 (nM) Necroptosis inhibition
[6] = U-937, comparison tables of the description, values as in Table 1 (assay 1), read-out: IC50 (nM) Off-Target Effect

Compound | IC50 [1, 3] [nM] | IC50 [2, 4] [nM] | IC50 [1, 5] [nM] | IC50 [2, 6] [nM]
CN(c1ccc(NC(=O)Nc2ccc(OC(F)(F)F)cc2)cc1)c1ccnc(Nc2cccc(-c3nnn(C)n3)c2)n1 [Compound 11, 1-(4-(Methyl(2-((3-(2-methyl-2H-tetrazol-5-yl)phenyl)amino)pyrimidin-4-yl)amino)phenyl)-3-(4-(trifluoromethoxy)phenyl)urea] | 7.5 | 1350 |  | 
CN(c1ccc(NC(=O)Nc2cc(F)cc(C(F)(F)F)c2)cc1)c1ccnc(Nc2cccc(S(N)(=O)=O)c2)n1 [Compound 10, 3-((4-((4-(3-(3-fluoro-5-(trifluoromethyl)phenyl)ureido)phenyl)(methyl)amino)pyrimidin-2-yl)amino)benzenesulfonamide] | < 1 | 506 | < 1 | 506
CNC(=O)c1cc(Nc2nccc(N(C)c3ccc(NC(=O)Nc4cc(F)cc(C(F)(F)F)c4)cc3)n2)ccc1OCCN1CCCC1 [Compound 32, 5-((4-((4-(3-(3-fluoro-5-(trifluoromethyl)phenyl)ureido)phenyl)(methyl)amino)pyrimidin-2-yl)amino)-N-methyl-2-(2-(pyrrolidin-1-yl)ethoxy)benzamide] | 40 |  |  | 
COCCNC(=O)c1cc(Nc2nccc(N(C)c3ccc(NC(=O)Nc4ccc(OC(F)(F)F)cc4)cc3)n2)ccc1C [Compound 9, N-(2-Methoxyethyl)-2-methyl-5-((4-(methyl(4-(3-(4-(trifluoromethoxy)phenyl)ureido)phenyl)amino)pyrimidin-2-yl)amino)benzamide] | 97.3 | > 10000 |  | 
CNC(=O)c1cc(Nc2nccc(N(C)c3ccc(NC(=O)Nc4ccc(Cl)c(C(F)(F)F)c4)cc3)n2)ccc1C [Compound 14, 5-((4-((4-(3-(4-Chloro-3-(trifluoromethyl)phenyl)ureido)phenyl)(methyl)amino)pyrimidin-2-yl)amino)-N,2-dimethylbenzamide] | 8.9 | 1630 |  | 
CN(c1ccc(NC(=O)Nc2ccc(OC(F)(F)F)cc2)cc1)c1ccnc(Nc2cccc(N)c2)n1 [Compound 22, 1-(4-((2-(3-aminophenylamino)pyrimidin-4-yl)(methyl)amino)phenyl)-3-(4-(trifluoromethoxy)phenyl)urea] | 427 | > 10000 |  | 
CN(c1ccc(NC(=O)Nc2ccc(OC(F)(F)F)cc2)cc1)c1ccnc(Nc2cccc(O)c2)n1 [Compound 19, 1-(4-((2-(3-hydroxyphenylamino)pyrimidin-4-yl)(methyl)amino)phenyl)-3-(4-(trifluoromethoxy)phenyl)urea] | 1160 | > 10000 |  | 
Cc1ccc(Nc2nccc(N(C)c3ccc(NC(=O)Nc4ccc(OC(F)(F)F)cc4)cc3)n2)cc1CN(C)C [Compound 1, 1-(4-((2-((3-((dimethylamino)methyl)-4-methylphenyl)amino)pyrimidin-4-yl)(methyl)amino)phenyl)-3-(4-(trifluoromethoxy)phenyl)urea] | 53 | 4680 |  | 
Cc1ccc(Nc2nccc(N(C)c3ccc(NC(=O)Nc4ccc(OC(F)(F)F)cc4)cc3)n2)cc1CN1CCOCC1 [Compound 18, 1-(4-(methyl(2-((4-methyl-3-(morpholinomethyl)phenyl)amino)pyrimidin-4-yl)amino)phenyl)-3-(4-(trifluoromethoxy)phenyl)urea] | 514 | > 10000 |  | 
Cc1ccc(Nc2nccc(N(C)c3ccc(NC(=O)Nc4ccc(OC(F)(F)F)cc4)cc3)n2)cc1N1CCCC1=O [Compound 7] | 51.8 | > 10000 |  | 
CNC(=O)c1cc(Nc2nccc(N(C)c3ccc(NC(=O)Nc4ccc(OC(F)(F)F)cc4)cc3)n2)ccc1N1CCOCC1 [Compound 17, N-methyl-5-((4-(methyl(4-(3-(4-(trifluoromethoxy)phenyl)ureido)phenyl)amino)pyrimidin-2-yl)amino)-2-morpholinobenzamide] | 38.3 | 5670 |  | 
CNC(=O)c1cc(Nc2ncc(F)c(N(C)c3ccc(NC(=O)Nc4ccc(OC(F)(F)F)cc4)cc3)n2)ccc1C [Compound 12, 5-((5-Fluoro-4-(methyl(4-(3-(4-(trifluoromethoxy)phenyl)ureido)phenyl)amino)pyrimidin-2-yl)amino)-N,2-dimethylbenzamide] | 10.1 | > 10000 | 10.1 | > 10000
COc1cccc(Nc2nccc(N(C)c3ccc(NC(=O)Nc4ccc(OC(F)(F)F)cc4)cc3)n2)c1 [Compound 20, 1-(4-((2-(3-methoxyphenylamino)pyrimidin-4-yl)(methyl)amino)phenyl)-3-(4-(trifluoromethoxy)phenyl)urea] | 504 | > 10000 |  | 
CNC(=O)c1cc(Nc2nccc(N(C)c3ccc(NC(=O)Nc4cccc(C#N)c4)cc3)n2)ccc1C [Compound 33, 5-((4-((4-(3-(3-cyanophenyl)ureido)phenyl)(methyl)amino)pyrimidin-2-yl)amino)-N,2-dimethylbenzamide] | 164 | 4130 |  | 
CN(c1ccc(NC(=O)Nc2ccc(OC(F)(F)F)cc2)cc1)c1nc(Nc2cccc(S(N)(=O)=O)c2)ncc1F [Compound 5, 3-((5-Fluoro-4-(methyl(4-(3-(4-(trifluoromethoxy)phenyl)ureido)phenyl)amino)pyrimidin-2-yl)amino) benzenesulfonamide] | 30 | 3110 |  | 
CC(=O)Nc1cc(Nc2nccc(N(C)c3ccc(NC(=O)Nc4ccc(OC(F)(F)F)cc4)cc3)n2)ccc1C [Compound 28, N-(2-methyl-5-((4-(methyl(4-(3-(4-(trifluoromethoxy)phenyl)ureido)phenyl)amino)pyrimidin-2-yl)amino)phenyl)acetamide] | 93 | 980 |  | 
Cc1ccc(Nc2nccc(N(C)c3ccc(NC(=O)Nc4ccc(OC(F)(F)F)cc4)cc3)n2)cc1CN1CCN(C)CC1 [Compound 23, 1-(4-(methyl(2-((4-methyl-3-((4-methylpiperazin-1-yl)methyl)phenyl)amino)pyrimidin-4-yl)amino)phenyl)-3-(4-(trifluoromethoxy)phenyl)urea] | 202 | 6380 |  | 
CN(c1ccc(NC(=O)Nc2ccc(OC(F)(F)F)cc2)cc1)c1ccnc(Nc2cccc(S(N)(=O)=O)c2)n1 [Compound 1 from AU 2014903569, reference compound] |  |  | 67.9 | 3570
CN(c1ccc(NC(=O)Nc2cc(C(F)(F)F)ccc2F)cc1)c1ccnc(Nc2cccc(S(N)(=O)=O)c2)n1 [Compound 3 from AU 2014903569, reference compound] |  |  |  | 791
CNC(=O)c1cc(Nc2nccc(N(C)c3ccc(NC(=O)Nc4cc(F)cc(C(F)(F)F)c4)cc3)n2)ccc1N1CCN(C)CC1 [Compound 31] | 13 |  |  | 
CNC(=O)c1cc(Nc2nccc(N(C)c3ccc(NC(=O)Nc4cc(F)cc(C(F)(F)F)c4)cc3)n2)ccc1N1CCOCC1 [Compound 27, 5-((4-((4-(3-(3-fluoro-5-(trifluoromethyl)phenyl)ureido)phenyl)(methyl)amino)pyrimidin-2-yl)amino)-N-methyl-2-morpholinobenzamide] | 325 | 2700 |  | 
CNC(=O)c1cc(Nc2nccc(N(C)c3ccc(NC(=O)Nc4cc(F)cc(C(F)(F)F)c4)cc3)n2)ccc1OC [Compound 30, 5-((4-((4-(3-(3-fluoro-5-(trifluoromethyl)phenyl)ureido)phenyl)(methyl)amino)pyrimidin-2-yl)amino)-2-methoxy-N-methylbenzamide] | 58 | 6680 |  | 
CNC(=O)c1cc(Nc2ncc(F)c(N(C)c3ccc(NC(=O)Nc4cc(C(F)(F)F)ccc4F)cc3)n2)ccc1C [Compound 15, 5-(5-fluoro-4-((4-(3-(2-fluoro-5-(trifluoromethyl)phenyl)ureido)phenyl)(methyl)amino)pyrimidin-2-ylamino)-N,2-dimethylbenzamide] | < 1 | 103 |  | 
Cc1ccc(Nc2nccc(N(C)c3ccc(NC(=O)Nc4cc(F)cc(C(F)(F)F)c4)cc3)n2)cc1C(=O)N1CCOCC1 [Compound 25, 1-(3-fluoro-5-(trifluoromethyl)phenyl)-3-(4-(methyl(2-((4-methyl-3-(morpholine-4-carbonyl)phenyl)amino)pyrimidin-4-yl)amino)phenyl)urea] | 9.2 | 2280 |  | 
Cc1ccc(Nc2ncc(F)c(N(C)c3ccc(NC(=O)Nc4cc(F)cc(C(F)(F)F)c4)cc3)n2)cc1N1CCCC1=O [Compound 24, 1-(4-((5-fluoro-2-((4-methyl-3-(2-oxopyrrolidin-1-yl)phenyl)amino)pyrimidin-4-yl)(methyl)amino)phenyl)-3-(3-fluoro-5-(trifluoromethyl)phenyl)urea] | 8.9 | 1240 |  | 
CNC(=O)c1cc(Nc2nccc(N(C)c3ccc(NC(=O)Nc4ccc(OC(F)(F)F)cc4)cc3)n2)ccc1C [Compound 3, N-2-Dimethyl-5-((4-(methyl(4-(3-(4-(trifluoromethoxy)phenyl)ureido)phenyl)amino)pyrimidin-2-yl)amino)benzamide] | 93.1 | > 10000 | 93.1 | > 10000
